These results are taken from publication PMC5607094 (Biochemical pharmacology, 2017).

For experiment [1], the target named is T1, FPR1 (Homo sapiens, UniProt P21462).
T1 sequence (P21462 1-350): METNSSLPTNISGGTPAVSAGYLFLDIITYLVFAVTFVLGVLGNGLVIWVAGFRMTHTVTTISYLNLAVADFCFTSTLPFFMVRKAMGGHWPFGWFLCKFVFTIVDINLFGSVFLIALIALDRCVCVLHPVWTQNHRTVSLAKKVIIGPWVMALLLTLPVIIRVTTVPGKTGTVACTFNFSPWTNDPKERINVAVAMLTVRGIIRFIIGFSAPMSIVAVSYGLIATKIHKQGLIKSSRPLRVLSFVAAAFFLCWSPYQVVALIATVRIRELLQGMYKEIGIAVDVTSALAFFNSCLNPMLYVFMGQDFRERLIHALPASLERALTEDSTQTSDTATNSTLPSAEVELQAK
The experiment in a line: fMLF-induced Ca2+ flux in human neutrophils. The format is cell-based. For orientation: Calcium assays in cells follow changes in intracellular calcium, usually with a dye or a luminescent sensor.

Experiment [2] deals with human neutrophils. Put plainly: fMLF-induced neutrophil chemotaxis. The class given is cell-based. To be noted: read-out: Chemotaxis PMN (+ fMLF) IC50.
The target in experiment [3] is T1, FPR1. The experiment in a line: fMLF-induced Ca2+ mobilization in FPR1-HL60 cells. The class given is cell-based. To be noted: for Activity class: Active / N.A. = no activity at highest concentration tested in Ca2+ flux assay (50 µM); for FPR1 antagonist activity: fMLF-induced Ca2+ mobilization in FPR1-HL60 cells.
The test system of experiment [4] is human neutrophils. Put plainly: fMLF-induced neutrophil adhesion to T84 epithelial cells. To be noted: read-out: Adhesion PMN (+ fMLF) IC50. The format is cell-based.
Experiment [5] concerns ERK1/2. The experiment in a line: ERK1/2 phosphorylation in human neutrophils. The class given is cell-based. To be noted: 10 min pretreatment, 10 nM fMLF.
Experiment [6] relates to ERK1/2. Put plainly: ERK1/2 phosphorylation in FPR1-RBL cells. The format is cell-based, rat. To be noted: FPR1-RBL cells (Figure 5B; text prints FPR1-HL60), 20 nM fMLF.
For experiment [7], the system named is ERK1/2. The experiment in a line: ERK1/2 phosphorylation in DMSO-differentiated neutrophil-like HL60 cells. The class given is cell-based, human. To be noted: for Inhibition of fMLF-induced phosphorylation of ERK1/2: DMSO-differentiated HL60 cells, 10 min pretreatment, 20 nM fMLF 5 min; for Inhibition of fMLF-induced ERK phosphorylation: cell type not stated in the sentence (Discussion).

In experiment [8] the target is T2, FPR2 (Homo sapiens, UniProt P25090).
T2 sequence (P25090 1-351): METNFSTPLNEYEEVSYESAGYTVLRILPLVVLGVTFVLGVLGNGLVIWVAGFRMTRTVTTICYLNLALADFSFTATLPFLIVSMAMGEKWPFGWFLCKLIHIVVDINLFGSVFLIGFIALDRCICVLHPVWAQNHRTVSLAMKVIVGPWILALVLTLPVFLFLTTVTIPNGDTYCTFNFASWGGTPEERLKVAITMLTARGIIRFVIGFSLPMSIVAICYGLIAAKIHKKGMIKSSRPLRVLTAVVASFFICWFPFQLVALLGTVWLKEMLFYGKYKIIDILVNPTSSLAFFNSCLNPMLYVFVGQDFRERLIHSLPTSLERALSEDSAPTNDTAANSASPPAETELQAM
The experiment in a line: Ca2+ mobilization in FPR2-HL60 cells.

In experiment [9] the target is T2, FPR2. The experiment in a line: WKYMVM-induced Ca2+ flux in human neutrophils.

As a reminder, the IC50 is the concentration that gives 50% inhibition.

For the molecule `CCCN1C(=O)C(O)=C(C(=O)c2ccccc2)C1c1cc(OC)ccc1OC` (centres unmarked) [Compound 4, 4-benzoyl-5-(2,5-dimethoxyphenyl)-3-hydroxy-1-propyl-2,5-dihydro-1H-pyrrol-2-one], the IC50 came out at 10.7 ± 2.5 µM in experiment [1], 6.3 ± 2.2 µM in experiment [2] and 2.9 ± 1.1 µM in experiment [4]. The Activity class result in [3] is on record as “Active”.
As to `CCCCN1C(=O)C(O)=C(C(=O)c2ccc(OC)cc2)C1c1ccc(C)cc1` (centres unmarked) [Compound 5, 1-butyl-3-hydroxy-4-(4-methoxybenzoyl)-5-(4-methylphenyl)-2,5-dihydro-1H-pyrrol-2-one], the values for the IC50 in experiment [1], in experiment [2] and in [4] were 26.7 ± 4.6 µM, 21.3 ± 7.6 µM and 25.8 ± 3.2 µM, respectively. Besides, the Activity class entry in experiment [3] was “Active”.
Regarding `COc1ccccc1C1C(C(=O)c2ccc(C)cc2)=C(O)C(=O)N1CC(C)O` (centres unmarked) [Compound 6, 3-hydroxy-1-(2-hydroxypropyl)-5-(2-methoxyphenyl)-4-(4-methylbenzoyl)-2,5-dihydro-1H-pyrrol-2-one], the IC50 was 12.4 ± 3.2 µM in experiment [1] and 36.3 ± 4 µM in [2].
On to `CCCCCCN1C(=O)C(O)=C(C(=O)c2ccccc2)C1c1ccc(O)c(OC)c1` (centres unmarked) [Compound 14, 4-benzoyl-1-hexyl-3-hydroxy-5-(4-hydroxy-3-methoxyphenyl)-2,5-dihydro-1H-pyrrol-2-one], for which the “Inhibition of fMLF-induced phosphorylation of ERK1/2” value in experiment [5] and in experiment [7] was “effectively inhibited” each time. Besides, the IC50 in experiment [1] is 4.8 ± 0.5 µM; in experiment [2], 4.2 ± 1.3 µM; in experiment [4], 1.6 ± 0.6 µM. The “Inhibition of fMLF-induced ERK1/2 phosphorylation” value in experiment [6] is “inhibited”. Besides, in [3], the Activity class entry is “Active”. The “Inhibition of fMLF-induced ERK phosphorylation” value in experiment [7] is reported as “inhibited”.
For the molecule `CCCCCCN1C(=O)C(O)=C(C(=O)c2ccc(C)cc2)C1c1ccc(OC)cc1OC` (centres unmarked) [Compound 15, 5-(2,4-dimethoxyphenyl)-1-hexyl-3-hydroxy-4-(4-methylbenzoyl)-2,5-dihydro-1H-pyrrol-2-one], the IC50 in experiment [1] is 3.8 ± 1.8 µM; in experiment [8] it was 6.5 ± 0.9 µM; in experiment [2], 12.8 ± 4.8 µM; in [9] it was 1.7 ± 0.1 µM. In addition, the Activity class result in experiment [3] is “Active”. Also, in experiment [3], the “FPR1 antagonist activity” value is “highly active FPR1 antagonists”. Further, the “Inhibition of fMLF-induced ERK phosphorylation” value in experiment [7] is reported as “inhibited”.
Turning to `COCCN1C(=O)C(O)=C(C(=O)c2ccccc2)C1c1cc(OC)ccc1OC` (centres unmarked) [Compound 17, 4-benzoyl-5-(2,5-dimethoxyphenyl)-3-hydroxy-1-(2-methoxyethyl)-2,5-dihydro-1H-pyrrol-2-one], the “Inhibition of fMLF-induced phosphorylation of ERK1/2” value in experiment [5] and in experiment [7] was “effectively inhibited” in each case. Besides, the IC50 was found to be 6.7 ± 0.2 µM in [1], 2.2 ± 1.2 µM in experiment [2] and 1.1 ± 0.2 µM in experiment [4]. Moreover, the “Inhibition of fMLF-induced ERK1/2 phosphorylation” value in experiment [6] is “inhibited”. For the same molecule, the Activity class entry in [3] is given as “Active”. Besides, the “Inhibition of fMLF-induced ERK phosphorylation” value in [7] is listed as “inhibited”.
Regarding `COCCN1C(=O)C(O)=C(C(=O)c2ccc(C)cc2)C1c1cc(OC)ccc1OC` (centres unmarked) [Compound 18, 5-(2,5-dimethoxyphenyl)-3-hydroxy-1-(2-methoxyethyl)-4-(4-methylbenzoyl)-2,5-dihydro-1H-pyrrol-2-one], the figures for the IC50 in experiment [1], in experiment [2] and in experiment [4] were 5.2 ± 1.4 µM, 12.4 ± 4.2 µM and 13.3 ± 2.7 µM, respectively. Also, the Activity class entry in [3] is “Active”. For the same molecule, the “FPR1 antagonist activity” value in experiment [3] is “highly active FPR1 antagonists”.
